Experimental data from patent publication US20240197890A1, “FLAVONE DERIVATIVES AND USES IN TARGETING CK2-MEDIATED DISEASES AND CONDITIONS” (Salk Institute for Biological Studies, priority 2020, published 2024).

How the values were obtained:
[1] = system: microglial phagocytosis of pHrodo E. coli beads; experiment: Microglial phagocytosis assay; assay type: cell-based, human; conditions: 20 μM, 5 h treatment
Procedure: Phagocytosis assay. […] Then, 0.5 μl of pH rodo E. coli-FITC beads (Thermo Fisher, P35366) was added per well with gentle mixing and the cells were incubated for another 4 hours. pHrodo beads only fluoresce when they are internalized in cells. Cells were then collected by scraping, washed with FACS buffer, and counter-stained with Zombie Violet to assess viability. Live cells were analyzed on the FACS Canto instrument for geometric mean fluorescence on the FITC channel. The background FITC fluorescence value (pHrodo beads only) was subtracted from each mean, and fold-change was computed across experimental groups.

[2] = system: IL-6, IL-8, TNF-α and MCP-1 in primary human cerebellar astrocytes (HCA); experiment: Flow-cytometry assay of intracellular cytokine production in IL1-β-treated astrocytes; assay type: cell-based
Procedure: Flow cytometry. For each well of HCA in a 6-well plate, 2 mL of fresh media with GolgiPLUG (BD #555029, 1:1000) and GolgiSTOP (BD #554724, 1:1000) with 20 μM compound or vehicle (DMSO) and IL1-β 10 ng/mL or DPBS was added. The cells were incubated for 5 h at 37° C. Cells were collected with TrypLE and plated into a 96-well V-bottom plate for staining. The plate was centrifuged for 5 min, 1300 rpm, 4° C. to pellet cells, which were subsequently resuspended in 100 μl DPBS with 1 μl Zombie Violet (Biolegend #423113) and 5 μl Human Trustain FC block (Biolegend #422302) per well for 15 min at room temperature in the dark. The plate was centrifuged, supernatant was aspirated, and the cells were washed with 100 μl/well DPBS. Cells were fixed with 100 μl/well of Cytofix/Cytoperm (BD) for 20 min at 4° C. The plate was centrifuged, supernatant was aspirated, and cells were resuspended in 100 μl Permwash (BD) and incubated for 15 min at 4° C. The plate was centrifuged, supernatant was aspirated, and cells were incubated with 100 μl/well of Ab mix or isotype mix in Permwash (see below) for 20 min at 4° C., followed by centrifugation and 2× PermWash washes. The cells were resuspended in 100 ul DPBS and transferred to FACS tubes containing 200 ul of PBS (total volume per tube 300 μl) for analysis on FACS Analyzers (LSRII or Fortessa).
Primary human cerebellar astrocytes (HCA) were co-treated with 20 μM of each compound or vehicle (DMSO), 10 ng/mL IL1-β, and a protein transport inhibitor for 6 hours, and then processed for intracellular staining of pro-inflammatory cytokines IL-6, IL-8, TNF-α, and MCP-1. […]; in vitro IC50 values are for CK2 as reported in the literature).

HMGB1 = HMGB1 secretion in AD patient iPSC-derived astrocytes (Western blot); assay type: cell-based, human
Procedure: Western blotting. For drug treatment assays, cells were treated with vehicle (DMSO) or 20 μM compound and stimulated with IL1-B 10 ng/mL for 1 h, 6 h, or 24 h. Cells were dissociated with 1:1 Accutase:papain for 3 min at rt, pelleted for 5 min at 800 g, and washed twice with cold DPBS. Pellets were lysed with RIPA buffer (Sigma R0278) supplemented with Halt protease inhibitor cocktail (Thermo Fisher 78445) and clarified by centrifugation (16,000 g, 10 min, 4° C.). Protein concentration was determined by BCA assay (Thermo Fisher). Proteins were denatured in 1×LDS Buffer and 2.5% beta-mercaptoethanol (X) for 10 min at 70° C., separated on Bolt 4-12% Bis-Tris Plus polyacrylamide gels (Thermo Fisher), transferred to PVDF membranes using the iBlot 2 Dry Blotting System, and blocked with 0.1% casein-PBS (Bio-Rad) for 1 h at room temperature. The blots were incubated with primary antibodies overnight at 4° C. in PBS containing 0.1% casein and 0.2% Tween-20. […] The blots were imaged using the Odyssey CLx imaging system and blots were analyzed on the ImageStudio software (LI-COR).
To further investigate this CK2 dysregulation in an in vitro AD model, iPSC-derived astrocytes were generated from a cohort of 6 AD patients and 5 age-matched controls. […] HMGB1 was detected in media from AD astrocytes in the absence of inflammatory stimuli (FIG. 12C). […]

## COc1cc(-c2cc(=O)c3c(O)cc(O)cc3o2)ccc1O [CHR, chrysoeriol]
[1]
  microglial phagocytosis of pHrodo E. coli beads: blocked
[2]; 20 μM, human astrocytes
  suppression of IL1-β-induced IL-6, IL-8, TNF-α and MCP-1 cytokine upregulation: strong suppressive activity
[2]; at 20 μM, FIG. 5A
  summary of SAR data, activity class: active
HMGB1
  HMGB1 secretion: reduced
